# Data reported in patent US7816350B2, “Substituted [1,2,3] triazolo[4,5-D]pyrimidines as cdk inhibitors” (Institute of Experimental Botany ASCR, priority 2002, dated 2010).
# Tests used:
# IκB-α kinase = IκB-α kinase inhibitory activity, in vitro kinase assay; format: biochemical
# β-adrenergic receptors = experiment: Modulation of the activity of β-adrenergic receptors, isoproterenol-induced cAMP synthesis in C6 glioma; format: cell-based; conditions: cAMP synthesis induced by 5 μM (−) isoproterenol, rat C6 glioma; for Effect: result in words; for IC50: read-out: I50
# Experimental: Rat C6 glioma (ATCC N^o CCL107) was cultivated in monolayer in serum-free chemically defined medium containing Ham's F10/minimal essential medium (1:1 vol/vol), 2 mM L-glutamine, 1% (vol/vol) minimal essential medium vitamins (100×), 1% (vol/vol) minimal essential medium nonessential amino acids (100×), 100 U/ml penicillin, 100 μg/ml streptomycin and 30 nM sodium selenite. Incubation was at 37° C. in a humidified atmosphere. Assays were performed in the logarithmic growth phase at a density of 2.5×10^5 cells/cm^2. Intracellular cAMP synthesis was induced by addition of 5 μM (−) isoproterenol. After 30 min incubation at 37° C. the medium was removed and the cellular amount of cAMP determined using the cAMP-enzyme immunoassay kit of Amersham. The I50 is determined from a dose-response curve in duplicate (Table 7). The effect of seven 8-azapurine-analogs was measured after simultaneous addition with isoproterenol.
# As P2Y1-like and A2 purinergic receptors, negatively and positively coupled to adenylate cyclase respectively, are present on rat C6 glioma it has to be determined if the modulation of the synthesis of cAMP is due to inhibition of the activation of β-adrenergic receptors by isoproterenol are due to activation of purinergic receptors.
# p34^cdc2/cyclin B (CDC2) = molecular target: T1, p34^cdc2/cyclin B (CDC2) (Homo sapiens, UniProt P06493); experiment: CDK inhibition assay, p34cdc2/cyclin B kinase, histone H1 phosphorylation; format: biochemical
# T1 construct: made in house; host or cells: Sf9 insect cells (baculovirus co-infection)
# Experimental: (§1) Cyclin-dependent kinases (p34^cdc2, p33^cdk2) and cyclins (cyclin B, E) are produced in Sf9 insect cells coinfected with appropriate baculoviral constructs. The cells are harvested 68-72 hrs post infection in lysis buffer for 30 min on ice and the soluble fraction is recovered by centrifugation at 14.000 g for 10 min. The protein extract is stored at −80° C.
# (§2) Lysis buffer: 50 mM Tris pH 7.4, 150 mM NaCl, 5 mM EDTA, 20 mM NaF, 1% Tween, 1 mM DTT, 0.1 mM PMSF, leupeptine, aprotonine.
# (§3) To carry out experiments on kinetics under linear conditions, the final point test system for kinase activity measurement is used. The kinase is added to reaction mixture in such a way as to obtain linear activity with respect to the concentration of enzyme and with respect to time.
# (§4) The p34^cdc2 and p33^cdk2 kinase inhibition determination involves the use of 1 mg/ml histone H1 (Sigma, type III-S) in the presence of 15 μM [γ-^32P]ATP ([…]) (Amersham) in a final volume of 20 μl. Kinase activity is determined at 30° C. in the kinase buffer.
# (§5) Tested compounds are usually dissolved to 100 mM solutions in DMSO, final concentration of DMSO in reaction mixture never exceeds 1%. The controls contain suitable dilutions of DMSO.
# (§6) After 10 min, addition 3×SDS sample buffer stops the incubations. Phosphorylated proteins are separated electrophoretically using 12.5% SDS polyacrylamide gel. The measurement of kinase activity is done using digital image analysis.
# (§7) The kinase activity is expressed as a percentage of maximum activity, the apparent inhibition constants are determined by graphic analysis (FIG. 1).
# (§8) Kinase buffer: 50 mM Hepes pH 7.4, 10 mM MgCl2, 5 mM EGTA, 10 mM 2-glycerolphosphate, 1 mM NaF, 1 mM DTT
# K-562 = experiment: In vitro cytotoxic activity, MTT assay, K-562; format: cell-based; conditions: Homo sapiens, K562, 72 hours
# MCF7 = experiment: In vitro cytotoxic activity, MTT assay, MCF7; format: cell-based; conditions: Homo sapiens, 72 hours
# Excerpt: One of the parameters used, as the basis for colorimetric assays is the metabolic activity of viable cells. For example, a microtiter assay, which uses the tetrazolium salt MTT, is now widely used to quantitate cell proliferation and cytotoxicity. For instance, this assay is used in drug screening programs and in chemosensitivity testing. Because only metabolically active cells cleave tetrazolium salts, these assays detect viable cells exclusively. In the case of MTT assay, yellow soluble tetrazolium salt is reduced to coloured water-insoluble formazan salt. After it is solubilized, the formazan formed can easily and rapidly be quantified in a conventional ELISA plate reader at 570 nm (maximum absorbance). The quantity of reduced formazan corresponds to number of vital cells in the culture.
# Human T-lymphoblastic leukemia cell line CEM; promyelocytic HL-60 and monocytic U937 leukemias; breast carcinoma cell lines MCF-7, BT549, MDA-MB-231; glioblastoma U87MG cells; cervical carcinoma cells HELA; sarcoma cells U2OS and Saos2; hepatocellular carcinoma HepG2; mouse immortalized bone marrow macrophages B2.4 and B10A.4; P388D1 and L1210 leukemia; B16 and B16F10 melanomas were used for routine screening of compounds. The cells were maintained in Nunc/Corning 80 cm^2 plastic tissue culture flasks and cultured in cell culture medium (DMEM with 5 g/l glucose, 2 mM glutamine, 100 U/ml penicillin, 100 μg/ml streptomycin, 10% fetal calf serum and sodium bicarbonate).
# The cell suspensions that were prepared and diluted according to the particular cell type and the expected target cell density (2.500-30.000 cells per well based on cell growth characteristics) were added by pipette (80 μl) into 96/well microtiter plates. Inoculates were allowed a pre-incubation period of 24 hours at 37° C. and 5% CO2 for stabilisation. Four-fold dilutions of the intended test concentration were added at time zero in 20 μl aliquots to the microtiter plate wells. Usually, test compound was evaluated at six 4-fold dilutions. In routine testing, the highest well concentration was 266.7 μM, but it can be the matter of change dependent on the agent. All drug concentrations were examined in duplicates. Incubations of cells with the test compounds lasted for 72 hours at 37° C., in 5% CO2 atmosphere and 100% humidity. At the end of incubation period, the cells were assayed by using the MTT. Ten microliters of the MTT stock solution were pipetted into each well and incubated further for 1-4 hours. After this incubation period, formazan was solubilized by addition of 100 μl/well of 10% SDS in water (pH=5.5) followed by further incubation at 37° C. overnight. The optical density (OD) was measured at 540 nm with the Labsystem iEMS Reader MF (UK). The tumour cell survival (TCS) was calculated using the following equation: TCS=(ODdrug exposed well/mean ODcontrol wells)×100%. The IC50 value, the drug concentration lethal to 50% of the tumour cells, was calculated from the obtained dose response curves (FIG. 2).
# p33^cdk2 (cyclin E) = molecular target: T2, p33^cdk2 (cyclin E) (Homo sapiens, UniProt P24941); experiment: CDK inhibition assay, p33cdk2 kinase, histone H1 phosphorylation; format: biochemical
# T2 construct: made in house; host or cells: Sf9 insect cells (baculovirus co-infection)
# Experimental: as §1, §2, §3, §4, §5, §6, §7, §8
# CDK9 - cyclin T1 = CDK9 - cyclin T1 (Homo sapiens, UniProt P50750); experiment: CDK inhibitory activity, CDK9 - cyclin T1; format: biochemical
# Chain of CDK9 - cyclin T1 (P50750 whole entry): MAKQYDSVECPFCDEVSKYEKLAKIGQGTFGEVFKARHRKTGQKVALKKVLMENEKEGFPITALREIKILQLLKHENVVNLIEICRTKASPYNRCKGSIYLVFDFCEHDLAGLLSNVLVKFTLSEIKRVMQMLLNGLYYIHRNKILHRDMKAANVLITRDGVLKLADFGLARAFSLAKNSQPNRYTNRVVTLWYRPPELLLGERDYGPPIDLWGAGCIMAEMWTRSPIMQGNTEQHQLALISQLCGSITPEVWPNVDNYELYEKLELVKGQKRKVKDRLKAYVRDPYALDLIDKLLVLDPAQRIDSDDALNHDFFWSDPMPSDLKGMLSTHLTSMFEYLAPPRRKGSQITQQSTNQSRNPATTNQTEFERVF
# Chain of CDK9 - cyclin T1 (O60563 whole entry partner): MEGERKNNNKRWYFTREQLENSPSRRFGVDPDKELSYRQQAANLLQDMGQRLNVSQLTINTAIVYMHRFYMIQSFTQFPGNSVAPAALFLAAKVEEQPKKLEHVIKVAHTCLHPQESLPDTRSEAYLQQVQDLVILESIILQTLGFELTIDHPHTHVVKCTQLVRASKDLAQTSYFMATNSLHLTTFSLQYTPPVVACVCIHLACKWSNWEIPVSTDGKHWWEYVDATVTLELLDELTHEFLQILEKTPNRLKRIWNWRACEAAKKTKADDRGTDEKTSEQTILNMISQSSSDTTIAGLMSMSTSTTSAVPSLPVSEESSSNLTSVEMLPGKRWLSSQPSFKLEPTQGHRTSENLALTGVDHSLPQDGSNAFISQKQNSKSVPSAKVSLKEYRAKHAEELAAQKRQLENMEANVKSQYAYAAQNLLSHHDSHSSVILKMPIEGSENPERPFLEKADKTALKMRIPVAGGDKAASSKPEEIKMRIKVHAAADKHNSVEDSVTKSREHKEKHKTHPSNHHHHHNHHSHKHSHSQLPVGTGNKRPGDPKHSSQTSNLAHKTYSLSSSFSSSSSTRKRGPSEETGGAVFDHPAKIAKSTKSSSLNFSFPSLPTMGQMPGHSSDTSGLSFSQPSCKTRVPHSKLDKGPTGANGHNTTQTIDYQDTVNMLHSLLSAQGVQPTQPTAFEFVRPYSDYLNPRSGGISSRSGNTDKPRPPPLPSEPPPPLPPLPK
# T1 sequence (P06493 whole entry, species assumed): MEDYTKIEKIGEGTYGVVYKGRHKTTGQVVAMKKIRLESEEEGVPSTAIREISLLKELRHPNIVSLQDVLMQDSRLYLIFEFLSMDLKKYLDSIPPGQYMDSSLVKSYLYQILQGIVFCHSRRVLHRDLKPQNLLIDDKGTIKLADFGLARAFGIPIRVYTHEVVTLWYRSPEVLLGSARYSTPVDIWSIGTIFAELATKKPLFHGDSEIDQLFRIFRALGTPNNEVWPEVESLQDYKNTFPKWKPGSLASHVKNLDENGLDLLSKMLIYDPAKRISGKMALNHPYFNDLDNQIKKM
# T1 sequence (P14635 whole entry partner, species assumed): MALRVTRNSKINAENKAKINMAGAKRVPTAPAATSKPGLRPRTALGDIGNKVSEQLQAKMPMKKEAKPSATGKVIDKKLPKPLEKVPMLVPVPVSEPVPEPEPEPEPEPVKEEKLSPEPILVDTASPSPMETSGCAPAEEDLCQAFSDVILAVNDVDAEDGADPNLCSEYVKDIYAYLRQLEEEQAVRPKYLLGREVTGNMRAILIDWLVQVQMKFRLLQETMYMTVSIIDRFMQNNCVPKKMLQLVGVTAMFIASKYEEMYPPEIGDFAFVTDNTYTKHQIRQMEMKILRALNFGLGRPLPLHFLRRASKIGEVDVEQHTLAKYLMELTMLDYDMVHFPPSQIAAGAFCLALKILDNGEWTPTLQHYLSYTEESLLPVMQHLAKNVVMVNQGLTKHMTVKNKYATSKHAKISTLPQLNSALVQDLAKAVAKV
smiles,measurement,setting,value
CC(C)n1nnc2c(NCc3ccccc3)nc(NCCN)nc21,IC50,IκB-α kinase,> 100 µM
same,"Effect, fold activation",β-adrenergic receptors,1.1-fold activation
same,IC50,p34^cdc2/cyclin B (CDC2),> 100 µM
"CC(C)C(CO)Nc1nc(Nc2cccc(Cl)c2)c2nnn(C(C)C)c2n1 (stereo not drawn) [Example 10, 2-(1-Hydroxymethyl-2-methylpropylamino)-6-(3-chloroanilino)-9-isopropyl-8-azapurine]",melting point,,160 to 163 °C
"Cc1nc(NCc2ccccc2)c2nnn(C(C)C)c2n1 [Example 15, 2-methyl-6-benzylamino-9-isopropyl-8-azapurine]",melting point,,133 to 139 °C
CC(C)n1nnc2c(Nc3cccc(Cl)c3)nc(NC3CCC(N)CC3)nc21 (stereo not drawn) [2-(4-aminocyclohexyl)amino-6-(3-chlorophenyl)amino-9-isopropyl-8-azapurine],IC50,K-562,7.4 µM
same,IC50,IκB-α kinase,60 µM
same,IC50,MCF7,6.1 µM
same,melting point,,221 to 223 °C
same,IC50,p34^cdc2/cyclin B (CDC2),6.3 µM
CC[C@H](CO)Nc1nc(NCc2cccc(O)c2)c2nnn(C(C)C)c2n1 [2-R-(1-hydroxymethyl)propylamino-6-(3-hydroxybenzyl)amino-9-isopropyl-8-azapurine],IC50,IκB-α kinase,85 µM
same,"Effect, fold activation",β-adrenergic receptors,1.3-fold activation
same,IC50,p34^cdc2/cyclin B (CDC2),10 µM
"NCCCNc1nc(NCc2ccccc2)c2[nH]nnc2n1 [Example 20, 2-(3-Aminopropylamino)-6-benzylamino-8-azapurine]",melting point,,119 to 124 °C
"Clc1nc(NCc2ccccc2)c2[nH]nnc2n1 [Example 18, 2-Chloro-6-benzylamino-8-azapurine]",melting point,,122 to 124 °C
"CC(C)C(CO)Nc1nc(NCc2cccc(O)c2)c2nnn(C(C)C)c2n1 (stereo not drawn) [Example 9, 2-(1-Hydroxymethyl-2-methylpropylamino)-6-(3-hydroxybenzylamino)-9-isopropyl-8-azapurine]",melting point,,150 to 152 °C
CCCCCCNc1nc(NC(CO)c2ccccc2)c2nnn(C(C)C)c2n1 (racemic),Effect,β-adrenergic receptors,inhibition
same,IC50,β-adrenergic receptors,12 ± 1 µM
CC(C)C(CO)Nc1nc(NCc2ccccc2)c2nnn(C(C)C)c2n1 (stereo not drawn),Effect,β-adrenergic receptors,inhibition
same,IC50,β-adrenergic receptors,32 ± 2 µM
"CC(C)n1nnc2c(NCc3ccccc3O)nc(N[C@H]3CC[C@H](N)CC3)nc21 [Example 12, 2-(trans-4-Aminocyclohexylamino)-6-(2-hydroxybenzylamino)-9-isopropyl-8-azapurine]",melting point,,120 to 123 °C
CC(C)n1nnc2c(NCc3ccccc3)nc(NCCCN)nc21,IC50,IκB-α kinase,> 100 µM
same,Effect,β-adrenergic receptors,inhibition
same,IC50,β-adrenergic receptors,31 ± 2 µM
same,IC50,p34^cdc2/cyclin B (CDC2),> 100 µM
CC[C@H](CO)Nc1nc(NCc2ccc(O)cc2)c2[nH]nc(C(C)C)c2n1,"Effect, fold activation",β-adrenergic receptors,1.2-fold activation
COc1ccc(CNc2nc(NC3CCCCC3N)nc3c2nnn3C(C)C)cc1O (stereo not drawn),IC50,p33^cdk2 (cyclin E),7 µM
same,IC50,CDK9 - cyclin T1,1.7 µM
CC(C)n1nnc2c(NCc3ccccc3O)nc(NC3CCC(N)CC3)nc21 (stereo not drawn),IC50,p33^cdk2 (cyclin E),27.7 µM
same,IC50,CDK9 - cyclin T1,14.7 µM
